Test results reported in US12077503B2, “Substituted cyclic amides and their use as herbicides” (FMC CORPORATION, priority 2015, dated 2024).
Like-named read-outs stand apart in the source and are kept apart here.

What was measured:
Type in all cases: in vivo
[1] = system: blackgrass (Alopecurus myosuroides); assay: Test A postemergence; conditions: Alopecurus myosuroides, post-emergence, 240 h; for pest or weed control at 125 g/ha: 125 g ai/ha; for pest or weed control at 500 g/ha: 500 g ai/ha, visual injury, 0 to 100 scale (0 no effect, 100 complete control)
Procedure, shortened: (§1)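 Visual injury, scored on a 0–100 scale relative to untreated controls, was recorded about 10 d after application. Treatments were a preemergence soil spray over planted seeds or a postemergence spray on plants at the one- to two-leaf stage, 2 to 10 cm tall, all in loam soil–sand blend in the greenhouse.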

[2] = system: ragweed (common ragweed, Ambrosia elatior); assay: Test A postemergence; conditions: Ambrosia artemisiifolia, post-emergence, 240 h; for pest or weed control at 125 g/ha: 125 g ai/ha
Procedure, shortened: as §1

[3] = system: giant foxtail (Setaria faberii); assay: Test A postemergence; conditions: Setaria faberi, post-emergence, 240 h; for pest or weed control at 125 g/ha: 125 g ai/ha; for pest or weed control at 500 g/ha: 500 g ai/ha, visual injury, 0 to 100 scale (0 no effect, 100 complete control)
Procedure, shortened: as §1

[4] = system: barnyardgrass (Echinochloa crus-galli); assay: Test A postemergence; conditions: Echinochloa crus-galli, post-emergence, 240 h; for pest or weed control at 125 g/ha: 125 g ai/ha; for pest or weed control at 500 g/ha: 500 g ai/ha, visual injury, 0 to 100 scale (0 no effect, 100 complete control)
Procedure, shortened: as §1

corn (Zea mays) = assay: Test A postemergence; conditions: Zea mays, post-emergence, 240 h; for Corn plant response rating (crop injury, 0 = no effect, 100 = complete kill) at 500 g/ha: 500 g ai/ha, visual injury, 0 to 100 scale (0 no effect, 100 complete control)
Procedure, shortened: as §1

[5] = system: ryegrass, Italian (Italian ryegrass, Lolium multiflorum); assay: Test A postemergence; conditions: Lolium multiflorum, post-emergence, 240 h; for pest or weed control at 125 g/ha: 125 g ai/ha
Procedure, shortened: as §1

[6] = system: Galium (catchweed bedstraw, Galium aparine); assay: Test A postemergence; conditions: Galium, post-emergence, 240 h; for pest or weed control at 125 g/ha: 125 g ai/ha; for pest or weed control at 500 g/ha: 500 g ai/ha, visual injury, 0 to 100 scale (0 no effect, 100 complete control)
Procedure, shortened: as §1

[7] = system: wheat (Triticum aestivum); assay: Test A postemergence; conditions: Triticum aestivum, post-emergence, 240 h; for plant injury at 125 g/ha: 125 g ai/ha
Procedure, shortened: as §1

[8] = system: pigweed (Amaranthus retroflexus); assay: Test A postemergence; conditions: Amaranthus retroflexus, post-emergence, 240 h; for pest or weed control at 125 g/ha: 125 g ai/ha
Procedure, shortened: as §1

Kochia (Kochia scoparia) [9] = assay: Test A postemergence; conditions: Bassia scoparia, post-emergence, 240 h; for pest or weed control at 125 g/ha: 125 g ai/ha; for pest or weed control at 500 g/ha: 500 g ai/ha, visual injury, 0 to 100 scale (0 no effect, 100 complete control)
Procedure, shortened: as §1

[10] = system: ragweed (common ragweed, Ambrosia elatior); assay: Test A preemergence; conditions: Ambrosia artemisiifolia, pre-emergence, 240 h; for pest or weed control at 125 g/ha: 125 g ai/ha, Preemergence, visual injury rating after approximately 10 d, read-out: Ragweed plant response rating (0 to 100 scale, 0 is no effect, 100 is complete control); for pest or weed control at 500 g/ha: 500 g ai/ha, preemergence, visual injury rating about 10 d after treatment, 0 to 100 scale (0 no effect, 100 complete control), read-out: Ragweed plant response rating
Procedure, shortened: as §1

[11] = system: barnyardgrass (Echinochloa crus-galli); assay: Test A preemergence; conditions: Echinochloa crus-galli, pre-emergence, 240 h; for pest or weed control at 125 g/ha: 125 g ai/ha, Preemergence, visual injury rating after approximately 10 d, read-out: Barnyardgrass plant response rating (0 to 100 scale, 0 is no effect, 100 is complete control); for pest or weed control at 500 g/ha: 500 g ai/ha, preemergence, visual injury rating about 10 d after treatment, 0 to 100 scale (0 no effect, 100 complete control), read-out: Barnyardgrass plant response rating
Procedure, shortened: as §1

[12] = system: ryegrass, Italian (Italian ryegrass, Lolium multiflorum); assay: Test A preemergence; conditions: Lolium multiflorum, pre-emergence, 240 h; for pest or weed control at 125 g/ha: 125 g ai/ha, Preemergence, visual injury rating after approximately 10 d, read-out: Ryegrass, Italian plant response rating (0 to 100 scale, 0 is no effect, 100 is complete control); for pest or weed control at 500 g/ha: 500 g ai/ha, preemergence, visual injury rating about 10 d after treatment, 0 to 100 scale (0 no effect, 100 complete control), read-out: Ryegrass, Italian plant response rating
Procedure, shortened: as §1

[13] = system: pigweed (Amaranthus retroflexus); assay: Test A preemergence; conditions: Amaranthus retroflexus, pre-emergence, 240 h; for pest or weed control at 125 g/ha: 125 g ai/ha, Preemergence, visual injury rating after approximately 10 d, read-out: Pigweed plant response rating (0 to 100 scale, 0 is no effect, 100 is complete control); for pest or weed control at 500 g/ha: 500 g ai/ha, preemergence, visual injury rating about 10 d after treatment, 0 to 100 scale (0 no effect, 100 complete control), read-out: Pigweed plant response rating
Kochia (Kochia scoparia) [14] = assay: Test A preemergence; conditions: Bassia scoparia, pre-emergence, 240 h; for pest or weed control at 125 g/ha: 125 g ai/ha, Preemergence, visual injury rating after approximately 10 d, read-out: Kochia plant response rating (0 to 100 scale, 0 is no effect, 100 is complete control); for pest or weed control at 500 g/ha: 500 g ai/ha, preemergence, visual injury rating about 10 d after treatment, 0 to 100 scale (0 no effect, 100 complete control), read-out: Kochia plant response rating
Procedure, shortened: as §1

[15] = postemergence, approx. 10 d, read-out: Plant response rating, Blackgrass
[16] = postemergence, approx. 10 d, read-out: Plant response rating, Foxtail, Giant
[17] = postemergence, approx. 10 d, read-out: Plant response rating, Barnyardgrass
[18] = postemergence, approx. 10 d, read-out: Plant response rating, Galium
[19] = postemergence, approx. 10 d, read-out: Plant response rating, Kochia

Work on `O=C1NC[C@H](c2ccc3c(c2)CCC3)[C@H]1C(=O)Nc1ccccc1F` [Compound 1045] yielded a pest or weed control at 125 g/ha ([1]; postemergence, visual injury on 0 to 100 scale (0 no effect, 100 complete control), approx. 10 d, read-out: Blackgrass plant response rating) of 40%, a pest or weed control at 500 g/ha [1, 15] of 60% and a pest or weed control at 125 g/ha ([2]; postemergence, visual injury on 0 to 100 scale (0 no effect, 100 complete control), approx. 10 d, read-out: Ragweed plant response rating) of 30%. For the same compound, the pest or weed control at 125 g/ha ([3]; postemergence, visual injury on 0 to 100 scale (0 no effect, 100 complete control), approx. 10 d, read-out: Foxtail, Giant plant response rating) was 60%, the pest or weed control at 500 g/ha [3, 16] was 90% and the pest or weed control at 125 g/ha ([4]; postemergence, visual injury on 0 to 100 scale (0 no effect, 100 complete control), approx. 10 d, read-out: Barnyardgrass plant response rating) was 90%. It also gave a pest or weed control at 500 g/ha [4, 17] of 90%, a plant injury at 125 g/ha (corn (Zea mays); 125 g ai/ha, postemergence, visual injury on 0 to 100 scale (0 no effect, 100 complete control), approx. 10 d, read-out: Corn plant response rating) of 20% and a Corn plant response rating (crop injury, 0 = no effect, 100 = complete kill) at 500 g/ha (corn (Zea mays); postemergence, approx. 10 d) of 40%. The pest or weed control at 125 g/ha ([5]; postemergence, visual injury on 0 to 100 scale (0 no effect, 100 complete control), approx. 10 d, read-out: Ryegrass, Italian plant response rating) was 50%, the pest or weed control at 125 g/ha ([6]; postemergence, visual injury on 0 to 100 scale (0 no effect, 100 complete control), approx. 10 d, read-out: Galium plant response rating) was 40% and the pest or weed control at 500 g/ha [6, 18] was 50%. It also gave a plant injury at 125 g/ha ([7]; postemergence, visual injury on 0 to 100 scale (0 no effect, 100 complete control), approx. 10 d, read-out: Wheat plant response rating) of 20%, a pest or weed control at 125 g/ha ([8]; postemergence, visual injury on 0 to 100 scale (0 no effect, 100 complete control), approx. 10 d, read-out: Pigweed plant response rating) of 0% and a pest or weed control at 125 g/ha (Kochia (Kochia scoparia) [9]; postemergence, visual injury on 0 to 100 scale (0 no effect, 100 complete control), approx. 10 d, read-out: Kochia plant response rating) of 0%. For the same compound, the pest or weed control at 500 g/ha (Kochia (Kochia scoparia) [9]; [19]) was 0%, the pest or weed control at 125 g/ha [10] was 0% and the pest or weed control at 500 g/ha [10] was 30%. For the same compound, the pest or weed control at 125 g/ha [11] was 90%, the pest or weed control at 500 g/ha [11] was 90% and the pest or weed control at 125 g/ha [12] was 30%. The pest or weed control at 500 g/ha [12] was 70%, the pest or weed control at 125 g/ha [13] was 0% and the pest or weed control at 500 g/ha [13] was 0%. It also gave a pest or weed control at 125 g/ha (Kochia (Kochia scoparia) [14]) of 0% and a pest or weed control at 500 g/ha (Kochia (Kochia scoparia) [14]) of 20%.

In the case of `COc1ccc([C@H]2CN(C)C(=O)[C@@H]2C(=O)Nc2cccc(F)c2F)cc1F` [Compound 1021], the pest or weed control at 125 g/ha ([1]; Postemergence, visual injury after approximately 10 d, 0 to 100 scale where 0 is no effect and 100 is complete control, read-out: Plant response rating, Blackgrass) is reported as 20%, the pest or weed control at 500 g/ha [1, 15] is reported as 50% and the pest or weed control at 125 g/ha ([2]; Postemergence, visual injury after approximately 10 d, 0 to 100 scale where 0 is no effect and 100 is complete control, read-out: Plant response rating, Ragweed) is reported as 40%. For the same compound, the pest or weed control at 500 g/ha ([2]; 500 g ai/ha, postemergence, visual injury, 0 to 100 scale (0 no effect, 100 complete control), approx. 10 d, read-out: Plant response rating, Ragweed) was 60%, the pest or weed control at 125 g/ha ([3]; Postemergence, visual injury after approximately 10 d, 0 to 100 scale where 0 is no effect and 100 is complete control, read-out: Plant response rating, Foxtail, Giant) was 90% and the pest or weed control at 500 g/ha [3, 16] was 90%. For the same compound, the pest or weed control at 125 g/ha ([4]; Postemergence, visual injury after approximately 10 d, 0 to 100 scale where 0 is no effect and 100 is complete control, read-out: Plant response rating, Barnyardgrass) was 100%, the pest or weed control at 500 g/ha [4, 17] was 100% and the Corn plant response rating (crop injury, 0 = no effect, 100 = complete kill) at 125 g/ha (corn (Zea mays); 125 g ai/ha, Postemergence, visual injury after approximately 10 d, 0 to 100 scale where 0 is no effect and 100 is complete control) was 60%. It also gave a Corn plant response rating (crop injury, 0 = no effect, 100 = complete kill) at 500 g/ha (corn (Zea mays); postemergence, approx. 10 d) of 80%, a pest or weed control at 125 g/ha ([5]; Postemergence, visual injury after approximately 10 d, 0 to 100 scale where 0 is no effect and 100 is complete control, read-out: Plant response rating, Ryegrass, Italian) of 40% and a pest or weed control at 500 g/ha ([5]; 500 g ai/ha, postemergence, visual injury, 0 to 100 scale (0 no effect, 100 complete control), approx. 10 d, read-out: Plant response rating, Ryegrass, Italian) of 70%. The pest or weed control at 125 g/ha ([6]; Postemergence, visual injury after approximately 10 d, 0 to 100 scale where 0 is no effect and 100 is complete control, read-out: Plant response rating, Galium) was 50%, the pest or weed control at 500 g/ha [6, 18] was 70% and the plant injury at 125 g/ha ([7]; Postemergence, visual injury after approximately 10 d, 0 to 100 scale where 0 is no effect and 100 is complete control, read-out: Plant response rating, Wheat) was 40%. The plant injury at 500 g/ha ([7]; 500 g ai/ha, postemergence, visual injury, 0 to 100 scale (0 no effect, 100 complete control), approx. 10 d, read-out: Plant response rating, Wheat) was 60%, the pest or weed control at 125 g/ha ([8]; Postemergence, visual injury after approximately 10 d, 0 to 100 scale where 0 is no effect and 100 is complete control, read-out: Plant response rating, Pigweed) was 0% and the pest or weed control at 500 g/ha ([8]; 500 g ai/ha, postemergence, visual injury, 0 to 100 scale (0 no effect, 100 complete control), approx. 10 d, read-out: Plant response rating, Pigweed) was 50%. For the same compound, the pest or weed control at 125 g/ha (Kochia (Kochia scoparia) [9]; Postemergence, visual injury after approximately 10 d, 0 to 100 scale where 0 is no effect and 100 is complete control, read-out: Plant response rating, Kochia) was 70%, the pest or weed control at 500 g/ha (Kochia (Kochia scoparia) [9]; [19]) was 70% and the pest or weed control at 125 g/ha [10] was 70%. For the same compound, the pest or weed control at 500 g/ha [10] was 70%, the pest or weed control at 125 g/ha [11] was 100% and the pest or weed control at 500 g/ha [11] was 100%. It also gave a pest or weed control at 125 g/ha [12] of 0%, a pest or weed control at 500 g/ha [12] of 20% and a pest or weed control at 125 g/ha [13] of 70%. For the same compound, the pest or weed control at 500 g/ha [13] was 80%, the pest or weed control at 125 g/ha (Kochia (Kochia scoparia) [14]) was 70% and the pest or weed control at 500 g/ha (Kochia (Kochia scoparia) [14]) was 90%.
